Assay results: US7592188B2, “Live cell biosensors” (The Scripps Research Institute, priority 2004, dated 2009)

What was measured:
[1] = Photophysical properties of dyes in various solvents (absorbance, emission, quantum yield); format: physicochemical; set-up: ε × F / ε × Φ: unit not given here
Description: Analytical grade reagents were purchased from major suppliers. […] Emission and excitation spectra were obtained using a Spex Fluorolog 2 spectrofluorometer at 23° C. […] Demas et al., J. Phys. […] All operations with dyes were performed under dim light. Flasks containing dyes were wrapped with aluminum foil.

[2] = Dye photo-bleaching under tungsten lamp irradiation; format: physicochemical
Description: Photo-bleaching. All samples contained 1 mM dye in a final volume of 10 mL. For nitrogen and oxygen saturation the samples were bubbled with solvent-saturated gas for 30 min. A 90 W halogen tungsten lamp was employed for irradiation, with a fan used for cooling. The temperature of samples was 25±1° C. during reactions. The absorption spectrum of each sample was measured before irradiation and after every 10 h period. For the trapping experiment thioanisole (1.0 M) was added to oxygen-saturated butanol solution of dye 1b. After 60 h of irradiation the reaction mixture was analyzed by GC-MS for products formed. The products, methylphenylsulfoxide and methylphenyl sulfone, were identified by comparison with authentic samples.
Dyes used in living cells must be photostable to provide many sequential images and to obtain sufficient light from minimal amounts of exogenous labeled material. The photostability of the new dyes was characterized by exposing them to constant illumination from a tungsten lamp filtered through glass, a broad spectrum light source that provided essentially equal intensity throughout the spectral range where the dyes would be irradiated in vivo. A fan was used to prevent heating, and dye solutions were adjusted for equal maximal absorbance, kept below 1 μM to minimize the inner filter effect. […] Photo-bleaching followed first-order kinetics in all cases.

CN(C(=O)COCC(=O)ON1C(=O)CCC1=O)c1ccc2c(c1)C(C)(C)/C(=C/C=C/C=C1/C(=O)c3ccccc3S1(=O)=O)N2CCCS(=O)(=O)[O-].[Na+] [dye 4f, Sodium 3-{(2Z)-5-[({2-[(2,5-Dioxopyrrolidin-1-yl)oxy]-2-oxoethoxy}acetyl)methylamino]-2-[(2E,4Z)-4-(1,1-dioxido-3-oxo-1-benzothien-2(3H)-ylidene)but-2-enylidene]-3,3-dimethyl-2,3-dihydro-1H-indol-1-yl}propane-1-sulfonate]
Emission λmax ([1]; reactive forms, solvent BuOH): 623 nm
absorption λmax ([1]; reactive forms, solvent BuOH): 590 nm
Φ (quantum yield of fluorescence) ([1]; reactive forms, solvent BuOH): 0.19
ε (molar extinction coefficient) ([1]; reactive forms, solvent BuOH): (134000)
ε × Φ ([1]; reactive forms, solvent BuOH): 26000
Emission λmax ([1]; reactive forms, solvent H2O): 616 nm
absorption λmax ([1]; reactive forms, solvent H2O): 594 nm
Φ (quantum yield of fluorescence) ([1]; reactive forms, solvent H2O): 0.01
ε (molar extinction coefficient) ([1]; reactive forms, solvent H2O): (150000)
ε × Φ ([1]; reactive forms, solvent H2O): 1500
Emission λmax ([1]; reactive forms, solvent MeOH): 620 nm
absorption λmax ([1]; reactive forms, solvent MeOH): 586 nm
Φ (quantum yield of fluorescence) ([1]; reactive forms, solvent MeOH): 0.05
ε (molar extinction coefficient) ([1]; reactive forms, solvent MeOH): (140000)
ε × Φ ([1]; reactive forms, solvent MeOH): 7000

CC1(C)/C(=C/C=C/C=C2/C(=O)c3ccccc3S2(=O)=O)N(CCCS(=O)(=O)[O-])c2ccc(NC(=O)CI)cc21.[Na+] [dye 4e, Sodium 3-{(2Z)-5-[(Iodoacetyl)amino]-2-[(2E,4Z)-4-(1,1-dioxido-3-oxo-1-benzothien-2(3H)-ylidene)but-2-enylidene]-3,3-dimethyl-2,3-dihydro-1H-indol-1-yl}propane-1-sulfonate]
Emission λmax ([1]; reactive forms, solvent BuOH): 639 nm
absorption λmax ([1]; reactive forms, solvent BuOH): 607 nm
Φ (quantum yield of fluorescence) ([1]; reactive forms, solvent BuOH): 0.06
ε (molar extinction coefficient) ([1]; reactive forms, solvent BuOH): (150000)
ε × Φ ([1]; reactive forms, solvent BuOH): 9000
Emission λmax ([1]; reactive forms, solvent H2O): 630 nm
absorption λmax ([1]; reactive forms, solvent H2O): 599 nm
Φ (quantum yield of fluorescence) ([1]; reactive forms, solvent H2O): 0.004
ε (molar extinction coefficient) ([1]; reactive forms, solvent H2O): (143000)
ε × Φ ([1]; reactive forms, solvent H2O): 600
Emission λmax ([1]; reactive forms, solvent MeOH): 634 nm
absorption λmax ([1]; reactive forms, solvent MeOH): 601 nm
Φ (quantum yield of fluorescence) ([1]; reactive forms, solvent MeOH): 0.01
ε (molar extinction coefficient) ([1]; reactive forms, solvent MeOH): (138000)
ε × Φ ([1]; reactive forms, solvent MeOH): 1400

O=C(CI)Nc1ccc2c(c1)S/C(=C/C=C/C=C1/C(=O)c3ccccc3S1(=O)=O)N2CCCS(=O)(=O)[O-].[Na+] [dye 2e, Sodium 3-[(2E)-6-[(Iodoacetyl)amino]-2-[(2E,4Z)-4-(1,1-dioxido-3-oxo-1-benzothien-2(3H)-ylidene)but-2-enylidene]-1,3-benzothiazol-3(2H)-yl]propane-1-sulfonate]
Emission λmax ([1]; reactive forms, solvent BuOH): 636 nm
absorption λmax ([1]; reactive forms, solvent BuOH): 618 nm
Φ (quantum yield of fluorescence) ([1]; reactive forms, solvent BuOH): 0.06
ε (molar extinction coefficient) ([1]; reactive forms, solvent BuOH): (160000)
ε × Φ ([1]; reactive forms, solvent BuOH): 9600
Emission λmax ([1]; reactive forms, solvent H2O): 618 nm
Emission λmax ([1]; reactive forms, solvent MeOH): 628 nm
absorption λmax ([1]; reactive forms, solvent MeOH): 610 nm
Φ (quantum yield of fluorescence) ([1]; reactive forms, solvent MeOH): 0.034
ε (molar extinction coefficient) ([1]; reactive forms, solvent MeOH): (140000)
ε × Φ ([1]; reactive forms, solvent MeOH): 3000

CC1(C)\C(=C/C=C/C=C2/C(=O)c3ccccc3S2(=O)=O)N(CCCS(=O)(=O)[O-])c2ccc(NC(=O)CSCCO)cc21.[Na+] [dye 4g, Sodium 3-{(2E)-5-({[(2-Hydroxyethyl)thio]acetyl}amino)-2-[(2E,4Z)-4-(1,1-dioxido-3-oxo-1-benzothien-2(3H)-ylidene)but-2-enylidene]-3,3-dimethyl-2,3-dihydro-2,3-dihydro-1H-indol-1-yl}propane-1-sulfonate]
quantum yield after reaction with β-mercaptoethanol relative to underivatized fluorophore [1]: half that of the unaltered fluorophore
Emission λmax ([1]; reactive forms, solvent BuOH): 628 nm
absorption λmax ([1]; reactive forms, solvent BuOH): 609 nm
Φ (quantum yield of fluorescence) ([1]; reactive forms, solvent BuOH): 0.12
ε (molar extinction coefficient) ([1]; reactive forms, solvent BuOH): (142000)
ε × Φ ([1]; reactive forms, solvent BuOH): 17000
Emission λmax ([1]; reactive forms, solvent H2O): 620 nm
absorption λmax ([1]; reactive forms, solvent H2O): 600 nm
Φ (quantum yield of fluorescence) ([1]; reactive forms, solvent H2O): 0.02
ε (molar extinction coefficient) ([1]; reactive forms, solvent H2O): (140000)
ε × Φ ([1]; reactive forms, solvent H2O): 3000
Emission λmax ([1]; reactive forms, solvent MeOH): 621 nm
absorption λmax ([1]; reactive forms, solvent MeOH): 601 nm
Φ (quantum yield of fluorescence) ([1]; reactive forms, solvent MeOH): 0.04
ε (molar extinction coefficient) ([1]; reactive forms, solvent MeOH): (140000)
ε × Φ ([1]; reactive forms, solvent MeOH): 6000

O=C(CSCCO)Nc1ccc2c(c1)S\C(=C/C=C/C=C1/C(=O)c3ccccc3S1(=O)=O)N2CCCS(=O)(=O)[O-].[Na+] [dye 2g, Sodium 3-[(2Z)-6-({[(2-Hydroxyethyl)thio]acetyl}amino)-2-[(2E,4Z)-4-(1,1-dioxido-3-oxo-1-benzothien-2(3H)-ylidene)but-2-enylidene]-1,3-benzothiazol-3(2H)-yl]propane-1-sulfonate]
quantum yield after reaction with β-mercaptoethanol relative to underivatized fluorophore [1]: returned the quantum yield of S—SO to that of the underivatized fluorophore
Emission λmax ([1]; reactive forms, solvent MeOH): 629 nm
absorption λmax ([1]; reactive forms, solvent MeOH): 610 nm
Φ (quantum yield of fluorescence) ([1]; reactive forms, solvent MeOH): 0.054
ε (molar extinction coefficient) ([1]; reactive forms, solvent MeOH): (138000)
ε × Φ ([1]; reactive forms, solvent MeOH): 8000

CN1\C(=C/C=C/C=C2/C(=O)c3ccccc3S2(=O)=O)C(C)(C)c2ccccc21 [dye 4a, (2Z)-2-[(2E,4Z)-4-(1,3,3-Trimethyl-1,3-dihydro-2H-indol-2-ylidene)-but-2-enylidene]-1-benzothiophen-3(2H)-one 1,1-Dioxide]
Abs. λmax ([1]; solvent BuOH): 587 nm
Emission λmax ([1]; solvent BuOH): 618 nm
Φ (quantum yield of fluorescence) ([1]; solvent BuOH): 0.54
ε (molar extinction coefficient) ([1]; solvent BuOH): (134000)
ε × F ([1]; solvent BuOH): 72000
Abs. λmax ([1]; solvent C6H6): 571 nm
Emission λmax ([1]; solvent C6H6): 603 nm
Φ (quantum yield of fluorescence) ([1]; solvent C6H6): 0.42
ε (molar extinction coefficient) ([1]; solvent C6H6): (109000)
ε × F ([1]; solvent C6H6): 46000
Abs. λmax ([1]; solvent DMF): 586 nm
Emission λmax ([1]; solvent DMF): 615 nm
Φ (quantum yield of fluorescence) ([1]; solvent DMF): 0.97
ε (molar extinction coefficient) ([1]; solvent DMF): (143000)
ε × F ([1]; solvent DMF): 140000
Abs. λmax ([1]; solvent MeOH): 586 nm
Emission λmax ([1]; solvent MeOH): 615 nm
Φ (quantum yield of fluorescence) ([1]; solvent MeOH): 0.08
ε (molar extinction coefficient) ([1]; solvent MeOH): (143000)
ε × F ([1]; solvent MeOH): 12000
Abs. λmax ([1]; solvent OcOH): 587 nm
Emission λmax ([1]; solvent OcOH): 617 nm
Φ (quantum yield of fluorescence) ([1]; solvent OcOH): 0.98
ε (molar extinction coefficient) ([1]; solvent OcOH): (125000)
ε × F ([1]; solvent OcOH): 123000
Absolute rate constant of dye photo-bleaching, kph × 10^6 ([2]; BuOH): 0.65 s^−1
Absolute rate constant of dye photo-bleaching, kph × 10^6 ([2]; MeOH): 0.28 s^−1

Sodium 3-[(2E)-6-[({2-[(2,5-Dioxopyrrolidin-1-yl)oxy]-2-oxoethoxy}-acetyl)methylaminol]-2-[(2E,4Z)-4-(1,1-dioxido-3-oxo-1-benzothien-2(3H)-ylidene)but-2-enylidene]-1,3-benzothiazol-3(2H)-yl]propane-1-sulfonate [dye 2f]
Emission λmax ([1]; reactive forms, solvent BuOH): 626 nm
absorption λmax ([1]; reactive forms, solvent BuOH): 608 nm
Φ (quantum yield of fluorescence) ([1]; reactive forms, solvent BuOH): 0.12
ε (molar extinction coefficient) ([1]; reactive forms, solvent BuOH): (134000)
Emission λmax ([1]; reactive forms, solvent H2O): 618 nm
Emission λmax ([1]; reactive forms, solvent MeOH): 621 nm
absorption λmax ([1]; reactive forms, solvent MeOH): 603 nm
Φ (quantum yield of fluorescence) ([1]; reactive forms, solvent MeOH): 0.06
ε (molar extinction coefficient) ([1]; reactive forms, solvent MeOH): (142000)
